The data set concerns bEND.3 cells. Kind of data set: Comparison of passage through intercellular space (standard materials, with or without mannitol). The settings on record: wells treated with mannitol (0.8 M) vs not treated; 20 min intervals over 120 min. The class given is in vitro ADME, mouse. Here is the method: The cells were seeded on the inserts of 24-well Transwell plates and cultured for 5 days as described above examples. F—Na (10 μM, Sigma, Cat No. 28803), FD4 (1 mM, Sigma, Cat No. FD4), and FD40 (25 μM, Sigma, Cat No. FD40S), all labeled with fluorescence (FITC), were used as standard materials for intercellular passage comparison. Mannitol (0.8 M), known to interfere with the formation of intercellular tight junctions, was added to some wells while other wells were not treated with mannitol. Thereafter, the standard materials were added to the wells, followed by monitoring the fluorescence intensity in the lower compartment of the Transwell plates at regular intervals of 20 min over 120 min.
F—Na, FD4 and FD40 were 376 Da, 4,000 Da and 40,000 Da in size, respectively. When tight junctions are formed, the materials which can pass between cells are limited by the sizes thereof. Thus, the standard materials may be used as positive or negative controls. For example, when tight junctions are well formed, FD40 differs in passage through intercellular spaces from F—Na and FD4 due to difference in […] size.

`O=C([O-])c1ccccc1-c1c2ccc(=O)cc-2oc2cc([O-])ccc12.[Na+].[Na+]` [F—Na]: the “fluorescence intensity in the lower compartment” value is “higher intensities were detected in the wells treated with mannitol”.

Values taken from patent publication US20100267031A1, “Method of Screening for RAGE-Amyloid-Beta Peptide Interaction Inhibiting Materials” (priority 2007, published 2010).
